Structures are written as SMILES. Some results are limits rather than exact numbers.

The target of one assay is T1, CDK8 (Homo sapiens (Human), UniProt P49336). The assay can be described thus: LanthaScreen Eu Kinase Binding Assay (competitive kinase binding assay). Particulars: Targeting Ligands of Table 1; displacing the Tracer from the target kinase; read-out: Enzyme IC50. The method, then:
The biological activities of the compounds of the present application can be assessed through a variety of methods known in the art. For example, a kinase competitive binding assay may be used to determine the activity of the compounds of the present application to bind to […]. […] The changes in the signal produced by the reporting ligand when the compound is present relative when the compound is absent are recorded, which are calculated to provide the IC50 of the compound. Compounds of the present application were tested in a competitive kinase binding assay by using commercially available assay system. For example, LanthaScreen® Eu Kinase Binding Assay (Invitrogen™) was used to measure the IC50 of the compounds of the present application in displacing the Tracer from binding to the target kinase, by following the assay protocol from Invitrogen™.
In general terms: Time-resolved FRET reads energy transfer from a long-lived donor to a nearby acceptor.
Target sequence in this assay (P49336 whole entry, looked up): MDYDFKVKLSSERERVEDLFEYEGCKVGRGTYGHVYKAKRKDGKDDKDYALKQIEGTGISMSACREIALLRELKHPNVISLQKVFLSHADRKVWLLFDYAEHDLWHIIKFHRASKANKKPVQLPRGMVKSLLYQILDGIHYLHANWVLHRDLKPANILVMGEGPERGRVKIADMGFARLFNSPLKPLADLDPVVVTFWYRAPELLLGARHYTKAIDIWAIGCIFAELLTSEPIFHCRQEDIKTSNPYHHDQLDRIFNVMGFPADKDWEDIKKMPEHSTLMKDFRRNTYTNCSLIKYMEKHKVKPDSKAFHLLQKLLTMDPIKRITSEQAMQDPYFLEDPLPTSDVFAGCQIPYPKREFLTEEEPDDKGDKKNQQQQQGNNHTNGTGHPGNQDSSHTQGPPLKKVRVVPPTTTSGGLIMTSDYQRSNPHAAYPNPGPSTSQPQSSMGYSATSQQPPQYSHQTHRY
Target sequence in this assay (P24863 whole entry partner, looked up): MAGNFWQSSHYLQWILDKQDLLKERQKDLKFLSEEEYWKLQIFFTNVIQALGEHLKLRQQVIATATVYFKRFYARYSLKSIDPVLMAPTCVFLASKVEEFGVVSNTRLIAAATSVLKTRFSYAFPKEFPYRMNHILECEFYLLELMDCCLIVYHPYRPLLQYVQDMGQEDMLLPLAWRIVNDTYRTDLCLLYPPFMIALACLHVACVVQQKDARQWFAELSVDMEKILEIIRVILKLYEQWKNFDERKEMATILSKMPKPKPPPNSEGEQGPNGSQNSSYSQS
As for `CN(C)[C@H]1CC[C@@]2(C)C(=CCC3[C@@H]4CC[C@H](c5ccc6ccncc6c5)[C@@]4(C)CC[C@@H]32)C1` (stereo in doubt) [Compound 33, (3S,8R,9S,10R,13S,14S)-17-(isoquinolin-7-yl)-N,N,10,13-tetramethyl-2,3,4,7,8,9,10,11,12,13,14,15,16,17-tetradecahydro-1H-cyclopenta[a]phenanthren-3-amine], the IC50 – broadly, the point on the concentration scale where inhibition reaches its midpoint – was less than 0.1 µM.

Consider `C[C@]12CC[C@H](O)CC1=CC[C@@H]1[C@@H]2CC[C@]2(C)C(c3ccc4ccncc4c3)=CC[C@@H]12` [Compound 1, (3S,8R,9S,10R,13S,14S)-17-(isoquinolin-7-yl)-10,13-dimethyl-2,3,4,7,8,9,10,11,12,13,14,15-dodecahydro-1H-cyclopenta[a]phenanthren-3-ol], for which the IC50 fell in the range of 0.101 to 0.2 µM.

For the compound `C[C@]12CC[C@H](O)C[C@@H]1CC[C@@H]1[C@@H]2CC[C@]2(C)C(c3ccc4ccncc4c3)=CC[C@@H]12` [Compound 2], the IC50 lay within 0.701 to 2 µM.

For `C[C@]12CC[C@H](O)CC1=CC[C@@H]1[C@@H]2CC[C@]2(C)C(c3ccc4cnncc4c3)=CC[C@@H]12` [Compound 3], the IC50 was more than 6 µM.

With `C[C@]12CC[C@H](O)CC1=CC[C@@H]1[C@@H]2CC[C@]2(C)C(c3ccc4nc(N)ncc4c3)=CC[C@@H]12` [Compound 4], the IC50 fell in the range of 2 to 6 µM.

As for `C[C@]12CC[C@H](O)CC1=CC[C@@H]1[C@@H]2CC[C@]2(C)C(c3ccc4[nH]ncc4c3)=CC[C@@H]12` [Compound 6], the IC50 was more than 6 µM.

As for `C[C@]12CC[C@H](O)CC1=CC[C@@H]1[C@@H]2CC[C@]2(C)C(c3ccc4cn[nH]c4c3)=CC[C@@H]12` [Compound 7], the IC50 was more than 6 µM.

Consider `C[C@]12CC[C@H]3[C@@H](CC=C4C[C@@H](O)CC[C@@]43C)[C@@H]1CC[C@@H]2c1ccc2ccncc2c1` [Compound 8a, (3S,8S,9S,10R,13S,14S,17S)-17-(isoquinolin-7-yl)-10,13-dimethyl-2,3,4,7,8,9,10,11,12,13,14,15,16,17-tetradecahydro-1H-cyclopenta[a]phenanthren-3-ol], for which the IC50 was less than 0.1 µM.

For the compound `C[C@]12CC[C@H](O)C[C@@H]1CC[C@@H]1[C@@H]2CC[C@]2(C)[C@@H](c3ccc4ccncc4c3)CC[C@@H]12` [Compound 8b], the IC50 is 0.201 to 0.3 µM.

With `C[C@]12CC[C@H]3[C@@H](CC=C4C[C@@H](O)CC[C@@]43C)[C@@H]1CC[C@@H]2c1ccc2cnncc2c1` [Compound 9], the IC50 is more than 6 µM.

As to `C[C@]12CC[C@H]3[C@@H](CC=C4C[C@@H](O)CC[C@@]43C)[C@@H]1CC[C@@H]2c1ccc2nc(N)ncc2c1` [Compound 10], the IC50 lay in the range of 0.101 to 0.2 µM.

On to `C[C@]12CC[C@H]3[C@@H](CC=C4C[C@@H](O)CC[C@@]43C)[C@@H]1CC[C@@H]2c1ccc2c(N)n[nH]c2c1` [Compound 11], for which the IC50 is 0.301 to 0.7 µM.

Take `C[C@]12CC[C@H]3[C@@H](CC=C4C[C@@H](O)CC[C@@]43C)[C@@H]1CC[C@@H]2c1ccc2[nH]ncc2c1` [Compound 12]: the IC50 was more than 6 µM.

For `C[C@]12CC[C@H]3[C@@H](CC=C4C[C@@H](O)CC[C@@]43C)[C@@H]1CC[C@@H]2c1ccc2cn[nH]c2c1` [Compound 13], the IC50 was more than 6 µM.

`C[C@]12CC[C@H]3[C@@H](CC=C4C[C@@H](O)CC[C@@]43C)[C@@H]1CC[C@@H]2c1ccc2cnccc2c1` [Compound 14]: the IC50 lay within 2 to 6 µM.

With `CN(C)[C@H]1CC[C@@]2(C)[C@@H](CC[C@@H]3[C@@H]2CC[C@]2(C)[C@@H](c4ccc5ccncc5c4)CC[C@@H]32)C1` [Compound 23, (3S,8R,9S,10S,13S,14S,17S)-(isoquinolin-7-yl)-N,N,10,13-tetramethylhexadecahydro-1H-cyclopenta[a]phenanthren-3-amine], the IC50 was less than 0.1 µM.

As for `CN(C)[C@@H]1CC[C@@]2(C)[C@@H](CC[C@@H]3[C@@H]2CC[C@]2(C)C(c4ccc5ccncc5c4)=CC[C@@H]32)C1` [Compound 24], the IC50 lay within 0.201 to 0.3 µM.

Take `CN(C)[C@@H]1CC[C@@]2(C)[C@@H](CC[C@@H]3[C@@H]2CC[C@]2(C)[C@@H](c4ccc5ccncc5c4)CC[C@@H]32)C1` [Compound 25]: the IC50 was less than 0.1 µM.

As to `C[C@]12CC[C@H](n3ccnn3)C[C@@H]1CC[C@@H]1[C@@H]2CC[C@]2(C)[C@@H](c3ccc4ccncc4c3)CC[C@@H]12` [Compound 39, 7-((3S,8R,9S,10S,13S,14S,17S)-10,13-dimethyl-3-(1H-1,2,3-triazol-1-yl)hexadecahydro-1H-cyclopenta[a]phenanthren-17-yl)isoquinoline], the IC50 was less than 0.1 µM.

For the compound `CC(=O)N(C)[C@H]1CC[C@@]2(C)[C@@H](CC[C@@H]3[C@@H]2CC[C@]2(C)[C@@H](c4ccc5ccncc5c4)CC[C@@H]32)C1` [Compound 47, N-((3S,8R,10S,13S,14S,17S)-17-(isoquinolin-7-yl)-10,13-dimethylhexadecahydro-1H-cyclopenta[a]phenanthren-3-yl)-N-methylacetamide], the IC50 is less than 0.1 µM.

The same assay, now with this note: bifunctional compounds; displacing the Tracer from the target kinase; read-out: Enzyme IC50.
Consider `CN(C(=O)CCOCCOCCOCCOCCNc1cccc2c1C(=O)N(C1CCC(=O)NC1=O)C2=O)[C@H]1CC[C@]2(C)C3CC[C@]4(C)[C@@H](c5ccc6ccncc6c5)CC[C@H]4C3CC[C@H]2C1` (stereo partly drawn) [Compound I-1, 1-((2-(2,6-dioxopiperidin-3-yl)-1,3-dioxoisoindolin-4-yl)amino)-N-((3S,5S,1&S,13S,14S,17S)-17-(isoquinolin-7-yl)-10,13-dimethylhexadecahydro-1H-cyclopenta[a]phenanthren-3-yl)-N-methyl-3,6,9,12-tetraoxapentadecan-15-amide], for which the IC50 lay in the range of 0.101 to 0.2 µM.

For the compound `CN(C(=O)CCOCCOCCNc1cccc2c1C(=O)N(C1CCC(=O)NC1=O)C2=O)[C@H]1CC[C@]2(C)C3CC[C@]4(C)[C@@H](c5ccc6ccncc6c5)CC[C@H]4C3CC[C@H]2C1` (stereo partly drawn) [Compound I-2, 3-(2-(2-((2-(2,6-dioxopiperidin-3-yl)-1,3-dioxoisoindolin-4-yl)amino)ethoxy)ethoxy)-N-((3S,10S,17S)-17-(isoquinolin-7-yl)-10,13-dimethylhexadecahydro-1H-cyclopenta[a]phenanthren-3-yl)-N-methylpropanamide], the IC50 was 0.101 to 0.2 µM.

In the case of `CN(C(=O)CCOCCOCCNc1cccc2c1C(=O)N(C1CCC(=O)NC1=O)C2=O)[C@H]1CC[C@@]2(C)C(CCC3C4CC[C@H](c5ccc6ccncc6c5)C4(C)CCC32)C1` (stereo partly drawn) [Compound I-3, 3-(2-(2-((2-(2,6-dioxopiperidin-3-yl)-1,3-dioxoisoindolin-4-yl)amino)ethoxy)ethoxy)-N-((3S,10S,17S)-17-(isoquinolin-7-yl)-10,13-dimethylhexadecahydro-1H-cyclopenta[a]phenanthren-3-yl)-N-methylpropanamide], the IC50 was in the range of 0.201 to 0.3 µM.

In the case of `CN1C(=O)CCC(N2C(=O)c3cccc(NCCOCCOCCOCCOCCC(=O)N(C)[C@H]4CC[C@]5(C)C6CC[C@]7(C)[C@@H](c8ccc9ccncc9c8)CC[C@H]7C6CC[C@H]5C4)c3C2=O)C1=O` (stereo partly drawn) [Compound I-5, N-((3S,5S,10S,13S,14S,17S)-17-(isoquinolin-7-yl)-10,13-dimethylhexadecahydro-1H-cyclopenta[a]phenanthren-3-yl)-N-methyl--((2-(1-methyl-2,6-dioxopiperidin-3-yl)-1,3-dioxoisoindolin-4-yl)amino)-3,6,9,12-tetraoxapentadecan-15-amide], the IC50 lay in the range of 0.301 to 0.7 µM.

The subject of the next assay is pS727-STAT1 (CDK8 substrate) in HepG2 cells. The assay can be described thus: Western blot of S727-STAT1 phosphorylation in IFNγ-treated HepG2 cells. The class given is cell-based. Particulars: 18 h with IFNγ, Compound 33 at 0.5, 1, 5 μM, DCA at 0.1, 1 μM. How it is done: FIG. 4 is a western blot illustrating inhibition of phosphorylation of S727-STAT1, a known CDK8 substrate, to form pS727-STAT1. pS727-STAT1 and total STAT1 were from HepG2 cells independently treated for 18 h with interferon gamma (IFNγ) and 0.5 μM, 1 μM, or 5 μM Compound 33, or with IFNγ and 0.1 μM or 1 μM dehydrocortistatin A (“DCA”).
As for `CN(C)[C@H]1CC[C@@]2(C)C(=CCC3[C@@H]4CC[C@H](c5ccc6ccncc6c5)[C@@]4(C)CC[C@@H]32)C1` (stereo in doubt) [Compound 33, (3S,8R,9S,10R,13S,14S)-17-(isoquinolin-7-yl)-N,N,10,13-tetramethyl-2,3,4,7,8,9,10,11,12,13,14,15,16,17-tetradecahydro-1H-cyclopenta[a]phenanthren-3-amine], the “inhibition of S727 phosphorylation (pS727-STAT1 vs total STAT1, western blot)” value is “dose-dependent inhibition”.

Consider `CN(C)[C@H]1C[C@@]23CC[C@@]4(O2)C(=CC[C@]2(C)C(c5ccc6ccncc6c5)=CC[C@H]24)C=C3[C@@H](O)[C@@H]1O` [DCA, dehydrocortistatin A, reference compound], for which the “inhibition of S727 phosphorylation (pS727-STAT1 vs total STAT1, western blot)” value was “dose-dependent inhibition”.

The next assay addresses T1, CDK8.
Assay: not given
Particulars: cited from earlier work.
Target sequence in this assay (P49336 whole entry, looked up, species assumed): as the sequence (P49336 whole entry, looked up) above
Target sequence in this assay (P24863 whole entry partner, looked up, species assumed): as the sequence (P24863 whole entry partner, looked up) above
`CN(C)[C@H]1C[C@@]23CC[C@@]4(O2)C(=CC[C@]2(C)C(c5ccc6ccncc6c5)=CC[C@H]24)C=C3[C@@H](O)[C@@H]1O` [DCA, dehydrocortistatin A, reference compound]: the IC50 was 0.017 µM.

Source of the values: patent publication US12325725B2, “Cyclin-dependent kinase degraders and methods of use” (DANA-FARBER CANCER INSTITUTE, INC., priority 2018, dated 2025).
